Values after ≈ are worked out from the molar mass of the structure shown.
Key:
Assay type in all cases: cell-based
[1] = system: Streptococcus pneumoniae 1016; assay: MIC, microtiter broth dilution (NCCLS M100-S14), S. pneumoniae 1016 (susceptible); conditions: Streptococcus pneumoniae 1016
How it was run: (§1)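 Steps: dissolve compound in DMSO to 40 mg/ml stock; dilute in broth across microtiter trays; inoculate strains; record MIC per NCCLS M100-S14.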

[2] = system: Streptococcus pneumoniae 1175; conditions: Streptococcus pneumoniae 1175; microtiter broth dilution
How it was run: as §1

[3] = system: Streptococcus pneumoniae 1095; conditions: Streptococcus pneumoniae 1095; microtiter broth dilution
How it was run: as §1

[4] = system: Streptococcus pyogenes 1079; assay: MIC, microtiter broth dilution (NCCLS M100-S14), S. pyogenes 1079 (ermB); conditions: Streptococcus pyogenes 1079
How it was run: as §1

[5] = system: Haemophilus influenzae 1218; assay: MIC, microtiter broth dilution (NCCLS M100-S14), H. influenzae 1218 (susceptible); conditions: Haemophilus influenzae 1218
How it was run: as §1

## CCC1OC(=O)C(C)C(=O)C(C)C(OC2OC(C)CC(N(C)C)C2O)C(C)(OC)CC(C)C(=O)C(C)C2N(C3CN(Cc4c(OC)cnc5cccnc45)C3)C(=O)OC12C (stereo not shown) [Example 1.101, 3-descladinosyl-11,12-dideoxy-6-O-methyl-3-oxo-12,11-(oxycarbonyl-(1-(3-methoxy-1,5-naphthyridine-4-methyl)-azetidin-3-yl)-imino)-erythromycin A]
[1]
  MIC S. pneumo. 1016: <0.063 µg/mL
[2]
  MIC S. pneumo. 1175: <0.063 µg/mL
[3]
  MIC S. pneumo. 1095: 0.125 µg/mL (≈ 0.149 µM)
[4]
  MIC S. pyogenes 1079: 0.25 µg/mL (≈ 0.298 µM)
[5]
  MIC H. influenzae 1218: 2 µg/mL (≈ 2.38 µM)

## CCC1OC(=O)C(C)C(=O)C(C)C(OC2OC(C)CC(N(C)C)C2O)C(C)(OC)CC(C)C(=O)C(C)C2N(C3CN(Cc4c(OC)ccc5ncccc45)C3)C(=O)OC12C (stereo not shown) [Example 1.102, 3-descladinosyl-11,12-dideoxy-6-O-methyl-3-oxo-12,11-(oxycarbonyl-(1-(6-methoxyquinoline-5-methyl)-azetidin-3-yl)-imino)-erythromycin A]
[1]
  MIC S. pneumo. 1016: <0.063 µg/mL
[2]
  MIC S. pneumo. 1175: <0.063 µg/mL
[3]
  MIC S. pneumo. 1095: <0.063 µg/mL
[4]
  MIC S. pyogenes 1079: 1 µg/mL (≈ 1.19 µM)
[5]
  MIC H. influenzae 1218: 2 µg/mL (≈ 2.38 µM)

## CCC1OC(=O)C(C)C(=O)C(C)C(OC2OC(C)CC(N(C)C)C2O)C(C)(OC)CC(C)C(=O)C(C)C2N(C3CN(Cc4ccc(Cl)cc4Cl)C3)C(=O)OC12C (stereo not shown) [Example 1.103, 3-descladinosyl-11,12-dideoxy-6-O-methyl-3-oxo-12,11-(oxycarbonyl-(1-(2,4-dichlorobenzene-1-methyl)-azetidin-3-yl)-imino)-erythromycin A]
[1]
  MIC S. pneumo. 1016: <0.063 µg/mL
[2]
  MIC S. pneumo. 1175: 0.125 µg/mL (≈ 0.151 µM)
[3]
  MIC S. pneumo. 1095: <0.063 µg/mL
[4]
  MIC S. pyogenes 1079: 16 µg/mL (≈ 19.4 µM)
[5]
  MIC H. influenzae 1218: 0.25 µg/mL (≈ 0.302 µM)

## CCC1OC(=O)C(C)C(=O)C(C)C(OC2OC(C)CC(N(C)C)C2O)C(C)(OC)CC(C)C(=O)C(C)C2N(C3CN(Cc4ccc5c(c4)OCO5)C3)C(=O)OC12C (stereo not shown) [Example 1.104, 3-descladinosyl-11,12-dideoxy-6-O-methyl-3-oxo-12,11-(oxycarbonyl-(1-(benzo[d][1,3]dioxole-5-methyl)-azetidin-3-yl)-imino)erythromycin A]
[1]
  MIC S. pneumo. 1016: <0.063 µg/mL
[2]
  MIC S. pneumo. 1175: 0.125 µg/mL (≈ 0.156 µM)
[3]
  MIC S. pneumo. 1095: <0.063 µg/mL
[4]
  MIC S. pyogenes 1079: >64 µg/mL
[5]
  MIC H. influenzae 1218: 0.25 µg/mL (≈ 0.312 µM)

## CCC1OC(=O)C(C)C(=O)C(C)C(OC2OC(C)CC(N(C)C)C2O)C(C)(OC)CC(C)C(=O)C(C)C2N(C3CN(Cc4ccc(OC)c5nccnc45)C3)C(=O)OC12C (stereo not shown) [Example 1.105]
[1]
  MIC S. pneumo. 1016: <0.063 µg/mL
[2]
  MIC S. pneumo. 1175: 0.125 µg/mL (≈ 0.149 µM)
[3]
  MIC S. pneumo. 1095: <0.063 µg/mL
[4]
  MIC S. pyogenes 1079: 8 µg/mL (≈ 9.52 µM)
[5]
  MIC H. influenzae 1218: 1 µg/mL (≈ 1.19 µM)

## CCC1OC(=O)C(C)C(=O)C(C)C(OC2OC(C)CC(N(C)C)C2O)C(C)(OC)CC(C)C(=O)C(C)C2N(C3CN(Cc4c(Br)cnc5cccnc45)C3)C(=O)OC12C (stereo not shown) [Example 1.106, 3-descladinosyl-11,12-dideoxy-6-O-methyl-3-oxo-12,11-(oxycarbonyl-(1-(3-bromo-1,5-naphthyridine-4-methyl)-azetidin-3-yl)-imino)-erythromycin A]
[1]
  MIC S. pneumo. 1016: <0.063 µg/mL
[2]
  MIC S. pneumo. 1175: <0.063 µg/mL
[3]
  MIC S. pneumo. 1095: <0.063 µg/mL
[4]
  MIC S. pyogenes 1079: 0.25 µg/mL (≈ 0.281 µM)
[5]
  MIC H. influenzae 1218: 1 µg/mL (≈ 1.12 µM)

## CCC1OC(=O)C(C)C(=O)C(C)C(OC2OC(C)CC(N(C)C)C2O)C(C)(OC)CC(C)C(=O)C(C)C2N(C3CN(Cc4c(Cl)cnc5ccccc45)C3)C(=O)OC12C (stereo not shown) [Example 1.107, 3-descladinosyl-11,12-dideoxy-6-O-methyl-3-oxo-12,11-(oxycarbonyl-(1-(3-chloroquinoline-4-methyl)-azetidin-3-yl)-imino)erythromycin A]
[1]
  MIC S. pneumo. 1016: <0.063 µg/mL
[2]
  MIC S. pneumo. 1175: <0.063 µg/mL
[3]
  MIC S. pneumo. 1095: <0.063 µg/mL
[4]
  MIC S. pyogenes 1079: 0.25 µg/mL (≈ 0.296 µM)
[5]
  MIC H. influenzae 1218: 1 µg/mL (≈ 1.19 µM)

## CCOc1cnc2ncccc2c1CN1CC(N2C(=O)OC3(C)C(CC)OC(=O)C(C)C(=O)C(C)C(OC4OC(C)CC(N(C)C)C4O)C(C)(OC)CC(C)C(=O)C(C)C23)C1 (stereo not shown) [Example 1.108, 3-descladinosyl-11,12-dideoxy-6-O-methyl-3-oxo-12,11-(oxycarbonyl-(1-(3-ethoxy-1,8-naphthyridine-4-methyl)-azetidin-3-yl)-imino)-erythromycin A]
[1]
  MIC S. pneumo. 1016: <0.063 µg/mL
[2]
  MIC S. pneumo. 1175: 0.125 µg/mL (≈ 0.146 µM)
[3]
  MIC S. pneumo. 1095: <0.063 µg/mL
[4]
  MIC S. pyogenes 1079: 0.5 µg/mL (≈ 0.585 µM)
[5]
  MIC H. influenzae 1218: 1 µg/mL (≈ 1.17 µM)

## CCC1OC(=O)C(C)C(=O)C(C)C(OC2OC(C)CC(N(C)C)C2O)C(C)(OC)CC(C)C(=O)C(C)C2N(C3CN(C(=O)c4cncc5ccccc45)C3)C(=O)OC12C (stereo not shown) [Example 2.01]
[1]
  MIC S. pneumo. 1016: <0.06 µg/mL
[2]
  MIC S. pneumo. 1175: 0.25 µg/mL (≈ 0.304 µM)
[3]
  MIC S. pneumo. 1095: 32 µg/mL (≈ 38.9 µM)
[4]
  MIC S. pyogenes 1079: >64.00 µg/mL
[5]
  MIC H. influenzae 1218: 4 µg/mL (≈ 4.86 µM)

## CCC1OC(=O)C(C)C(=O)C(C)C(OC2OC(C)CC(N(C)C)C2O)C(C)(OC)CC(C)C(=O)C(C)C2N(C3CN(C(=O)c4cccc5[nH]c(C)nc45)C3)C(=O)OC12C (stereo not shown) [Example 2.02]
[1]
  MIC S. pneumo. 1016: <0.06 µg/mL
[2]
  MIC S. pneumo. 1175: 2 µg/mL (≈ 2.42 µM)
[3]
  MIC S. pneumo. 1095: >64.00 µg/mL
[4]
  MIC S. pyogenes 1079: >64.00 µg/mL
[5]
  MIC H. influenzae 1218: 2 µg/mL (≈ 2.42 µM)

## CCC1OC(=O)C(C)C(=O)C(C)C(OC2OC(C)CC(N(C)C)C2O)C(C)(OC)CC(C)C(=O)C(C)C2N(C3CN(C(=O)Nc4ccc5ccccc5c4)C3)C(=O)OC12C (stereo not shown) [Example 2.04]
[1]
  MIC S. pneumo. 1016: <0.06 µg/mL
[2]
  MIC S. pneumo. 1175: <0.06 µg/mL
[3]
  MIC S. pneumo. 1095: 8 µg/mL (≈ 9.56 µM)
[4]
  MIC S. pyogenes 1079: 32 µg/mL (≈ 38.2 µM)
[5]
  MIC H. influenzae 1218: 8 µg/mL (≈ 9.56 µM)

## CCC1OC(=O)C(C)C(=O)C(C)C(OC2OC(C)CC(N(C)C)C2O)C(C)(OC)CC(C)C(=O)C(C)C2N(C3CN(C(=O)Nc4ccc5ncccc5c4)C3)C(=O)OC12C (stereo not shown) [Example 2.05, N-(quinolin-6-yl) aminocarbonyl]
[1]
  MIC S. pneumo. 1016: <0.06 µg/mL
[2]
  MIC S. pneumo. 1175: <0.06 µg/mL
[3]
  MIC S. pneumo. 1095: 16 µg/mL (≈ 19.1 µM)
[4]
  MIC S. pyogenes 1079: 64 µg/mL (≈ 76.4 µM)
[5]
  MIC H. influenzae 1218: 0.5 µg/mL (≈ 0.597 µM)

## CCC1OC(=O)C(C)C(=O)C(C)C(OC2OC(C)CC(N(C)C)C2O)C(C)(OC)CC(C)C(=O)C(C)C2N(C3CN(C(=O)Nc4cccc5ncccc45)C3)C(=O)OC12C (stereo not shown) [Example 2.06, 3-descladinosyl-11,12-dideoxy-6-O-methyl-3-oxo-12,11-(oxycarbonyl-(1-(N-(quinolin-5-yl)-aminocarbonyl)-azetidin-3-yl)-imino)-erythromycin A]
[1]
  MIC S. pneumo. 1016: <0.06 µg/mL
[2]
  MIC S. pneumo. 1175: 0.25 µg/mL (≈ 0.298 µM)
[3]
  MIC S. pneumo. 1095: 16 µg/mL (≈ 19.1 µM)
[4]
  MIC S. pyogenes 1079: >64.00 µg/mL
[5]
  MIC H. influenzae 1218: 0.5 µg/mL (≈ 0.597 µM)

## CCC1OC(=O)C(C)C(=O)C(C)C(OC2OC(C)CC(N(C)C)C2O)C(C)(OC)CC(C)C(=O)C(C)C2N(C3CN(C(=O)Nc4cc(-c5ccc(F)cc5)n[nH]4)C3)C(=O)OC12C (stereo not shown) [Example 2.07]
[1]
  MIC S. pneumo. 1016: <0.06 µg/mL
[2]
  MIC S. pneumo. 1175: 32 µg/mL (≈ 36.7 µM)
[3]
  MIC S. pneumo. 1095: 4 µg/mL (≈ 4.59 µM)
[4]
  MIC S. pyogenes 1079: 16 µg/mL (≈ 18.4 µM)
[5]
  MIC H. influenzae 1218: 16 µg/mL (≈ 18.4 µM)

Source: patent US7462600B2, “Macrolides” (Pfizer Inc, priority 2004, dated 2008)
